“Also recorded” adds a separate entry of the source. Where a name gives a salt, the structure may show the parent alone.
Assays:
[1] = tested on: Bone marrow-derived macrophages (BMDMs); test: LPS-nigericin inflammasome activation/pyroptosis in BMDMs; type: cell-based, mouse; details: for kinetic cell death: SYTOX orange, 0-6 hrs
Experimental: Human kidney cell line HEK293T was cultured in Dulbecco's modified Eagle's medium supplemented with 10% (v/v) fetal bovine serum, 100 U/ml penicillin and 100 µg/ml streptomycin. Human peripheral blood monocyte cell line, THP1 cells were cultured in RPMI-1640 medium supplemented with 10% (v/v) fetal bovine serum, 100 U/ml penicillin and 100 µg/ml streptomycin. For isolation of BMDMs, tibias and femurs were removed from wild type and GsdmD^−/− mice and bone marrow was flushed with complete DMEM-medium. Cells were plated in medium containing 20% (v/v) conditioned medium of L929 mouse fibroblasts cultured for 7 days at 37° C. in a humidified atmosphere of 5% C02. Medium was replaced every 3 days.
Conditioned media or serum was collected as indicated and IL-1β or TNF-α, were quantified by sandwich ELISA (R&D Systems).
Cells were plated, treated and incubated in phenol red free medium. Following treatment medium was collected and assessed for LDH release using the CytoTox96 non-radioactive cytotoxicity assay (Promega) as per manufacturer's instructions. Kinetic cell death assays were performed using SytoxOrange and the Biotek Cytation5.
For noncanonical inflammasome activation, cells were primed with […] Pam3CSK4 (Invivogen) for 2 h, followed by transfection of LPS (2 μg/ml) using Lipofectamine 2000 for 16 hours.
Primary BMDMs from WT or GsdmD^−/− mice were cultured in 12-well plates (1×10^6 cells per ml; 1 ml) or 10 cm dishes (2×10^6 cells per ml; 10 ml). HEK293T cells (2.5×10^5 cells per ml; 3 ml) were cultured in 6-well plates and transfected with FLAG-tagged GSDMD constructs where indicated. For cell lysate analysis cells were lysed directly in 1× Lamelli sample buffer. For native gel analysis cells were lysed in NP-40 lysis buffer (50 mM Tris-HCl, pH 7.4, containing 150 mM NaCl, 0.5% (w/v) IgePal, 50 mM NaF, 1 mM Na3VO4, 1 mM dithiothreitol, 1 mM phenylmethylsulfonyl fluoride and protease inhibitor cocktail. For immunoprecipitation of GSDMD, cells were treated as indicated and then collected in 500 μl RIPA buffer, followed by incubation for 15 min on ice. Lysates were incubated with GSDMD antibody and protein A-protein G-agarose was added to each sample, followed by incubation overnight at 4° C. Immunoprecipitates were collected by centrifugation and washed four times with 1 ml of RIPA buffer. Immunprecipates were eluted from beads using 1× sample buffer. Samples were resolved by SDS-PAGE and stained using simply blue safe stain or transferred to nitrocellulose membranes and analyzed by immunoblot. Immunoreactivity was visualized by the Odyssey Imaging System (LICOR Biosciences). For immunoblotting of IL-1β in cell supernatants, conditioned medium was collected and filtered using filter spin columns to reduce salt and remove abundant serum proteins. Filtrates were added to 4×SDS-PAGE sample buffer and resolved by SDS-PAGE for immunoblot analysis. GSDMD (ab209845) and GSDME antibodies were from abcam (ab215191). Caspase 1 antibody was from adipogen. Fumarase antibody was from cell signalling and anti-β-actin (AC-15; A1978) were from Sigma; anti-mouse IRDye™ 680 (926-68070) and anti-rabbit IRDye™ 800 (926-32211) were from LI-COR Biosciences.
Numerous studies have shown that cell metabolism impacts inflammatory responses. LPS activated macrophages switch from oxidative phosphorylation to aerobic glycolysis. Krebs cycle intermediates such as succinate and itaconate accumulate and moonlight as positive and negative regulators of inflammatory gene expression (3-8). To determine if Krebs cycle intermediates modulate pyroptosis, we tested their effect on inflammasome responses. Bone marrow-derived macrophages (BMDMs) were primed with LPS (2 hr) before being exposed to metabolites and then exposed to nigericin (Nig) and inflammasome activation/pyroptosis measured. The metabolites were added after LPS to avoid any impact on transcription. […] Fumarate impaired kinetic cell death (0-6 hrs) (FIG. 1E, FIG. 5A). […]

GSDMD = molecular target: T1, GSDMD (Mus musculus, UniProt Q9D8T2); test: Tandem MS of GSDMD immunoprecipitated from treated BMDMs; type: cell-based; details: GSDMD immunoprecipitated from fumarate treated BMDMs
T1 construct: We also immunoprecipitated GSDMD from fumarate treated BMDMs; endogenous in cells; host or cells: primary mouse BMDMs
T1 sequence (Q9D8T2 1-487): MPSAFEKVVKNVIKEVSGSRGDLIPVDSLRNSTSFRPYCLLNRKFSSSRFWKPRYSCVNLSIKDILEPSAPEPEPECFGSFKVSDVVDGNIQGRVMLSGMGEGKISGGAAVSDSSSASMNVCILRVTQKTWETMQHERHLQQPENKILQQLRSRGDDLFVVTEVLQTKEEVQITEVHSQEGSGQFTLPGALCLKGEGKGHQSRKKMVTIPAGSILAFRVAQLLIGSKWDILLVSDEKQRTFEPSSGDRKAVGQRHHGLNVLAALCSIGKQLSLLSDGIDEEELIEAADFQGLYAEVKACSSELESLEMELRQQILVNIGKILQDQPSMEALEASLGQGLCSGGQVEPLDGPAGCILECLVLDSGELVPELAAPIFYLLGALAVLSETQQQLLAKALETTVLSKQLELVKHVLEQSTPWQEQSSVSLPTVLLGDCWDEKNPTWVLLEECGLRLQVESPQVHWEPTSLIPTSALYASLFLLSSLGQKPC

GSDMD-N = molecular target: T2, GSDMD-N (Mus musculus, UniProt Q9D8T2); test: GSDMD-N induced LDH release in HEK293T cells; type: cell-based; details: transfected HEK293T cells
T2 construct: Caspase cleavage of GSDMD liberates an N-terminal pore forming fragment (GSDMD-N, p30); host or cells: HEK293T
T2 sequence (Q9D8T2 1-276 limits assumed): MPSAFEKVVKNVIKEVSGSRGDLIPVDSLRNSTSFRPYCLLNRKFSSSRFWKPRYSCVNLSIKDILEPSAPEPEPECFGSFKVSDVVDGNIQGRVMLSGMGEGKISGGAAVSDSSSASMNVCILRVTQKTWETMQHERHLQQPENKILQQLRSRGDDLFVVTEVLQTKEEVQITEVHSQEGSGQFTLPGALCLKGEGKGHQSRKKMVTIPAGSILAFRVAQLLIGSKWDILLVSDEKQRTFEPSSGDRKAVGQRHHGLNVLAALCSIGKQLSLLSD
Source text: FIGS. 2A-J. Succination of GSDMD inhibits pyroptosis. Immunoblot of GSDMD in streptavidin pulldown from clicked lysates treated as indicated (A-B). Representative MS spectra of 2-monomethyl and 2-dimethylsuccination of GSDMD immunoprecipitated from fumarate treated BMDMs (C-D). Immunoblot of GSDMD in clicked lysates from transfected HEK293T. Cell death of HEK293T transfected as indicated (F-H). Immunoblots of casplp20 and GSDMD in BMDMs (I). Immunoblots of an in vitro binding assay of succinated and non-succinated GSDMD incubated with caspase 1 beads (J). A, B, F, J, […] representative images from three independent experiments. C, D, E, representative mass spec spectra from two independent experiments. H, I pooled data from three independent experiments. ***, P<0.001 (One-way anova). Error bars show means±SEM.
Cells were plated, treated and incubated in phenol red free medium. Following treatment medium was collected and assessed for LDH release using the CytoTox96 non-radioactive cytotoxicity assay (Promega) as per manufacturer's instructions. […]
Primary BMDMs from WT or GsdmD^−/− mice were cultured in 12-well plates (1×10^6 cells per ml; 1 ml) or 10 cm dishes (2×10^6 cells per ml; 10 ml). […] Samples were resolved by SDS-PAGE and stained using simply blue safe stain or transferred to nitrocellulose membranes and analyzed by immunoblot. […]

COC(=O)/C=C/C(=O)OC [Fumarate, Dimethyl fumarate]
GSDMD oligomerization ([1]; BMDMs pre-treated, LPS-Nig, native and reduced lysates): decreased | LPS-Nig-induced release of LDH ([1]; WT BMDMs, LPS 2 hr, compound 1 hour (fumarate 25 μM), then nigericin): potently blocked | LPS-Nig-induced release of IL-1β ([1]; WT BMDMs, LPS 2 hr, compound 1 hour (fumarate 25 μM), then nigericin, ELISA): potently blocked | kinetic cell death ([1]; WT BMDMs, LPS-Nig): impaired | kinetic cell death ([1]; WT BMDMs, LPS-Nig, listed as fumarate): inhibited cell death | formation of GSDMD-N ([1]; WT BMDMs, LPS-Nig, immunoblot): blocked | cell death when added after Nig treatment ([1]; WT BMDMs, fumarate 25 μM 15 minutes after each nigericin timepoint): impaired | 2-monomethyl and 2-dimethyl succination sites of GSDMD in cells (GSDMD): Cys^192; also recorded: Cys^57; also recorded: Cys^77 | GSDMD-N induced LDH release (GSDMD-N): inhibited

From patent US20230233500A1, “Gasdermin D (GSDMD) Succination for the Treatment of Inflammatory Disease” (University of Massachusetts, priority 2020, published 2023)
